Experimental data from patent US10351522B2, “Sulfonamide derivative and pharmaceutically acceptable acid addition salt thereof” (UNIVERSITY OF TSUKUBA, priority 2015, dated 2019).
Where two headings read alike, the source gives them in different places.

Columns and labels:
human OX1R = target: T1, human OX1R (Homo sapiens, UniProt O43613); assay: Agonist activity against OX1R: intracellular calcium (Fura-2AM, FDSS7000) in CHOOX1R cells; format: cell-based; conditions: for Emax at 0.1 µM / Emax at 1 µM / Emax at 10 µM: read-out: Response (%) OX1R
T1 construct: expressed in transfected cells; host or cells: CHO (Chinese hamster ovary) cells, line CHOOX1R, co-expressing NFAT-luciferase
T1 sequence (O43613 1-425): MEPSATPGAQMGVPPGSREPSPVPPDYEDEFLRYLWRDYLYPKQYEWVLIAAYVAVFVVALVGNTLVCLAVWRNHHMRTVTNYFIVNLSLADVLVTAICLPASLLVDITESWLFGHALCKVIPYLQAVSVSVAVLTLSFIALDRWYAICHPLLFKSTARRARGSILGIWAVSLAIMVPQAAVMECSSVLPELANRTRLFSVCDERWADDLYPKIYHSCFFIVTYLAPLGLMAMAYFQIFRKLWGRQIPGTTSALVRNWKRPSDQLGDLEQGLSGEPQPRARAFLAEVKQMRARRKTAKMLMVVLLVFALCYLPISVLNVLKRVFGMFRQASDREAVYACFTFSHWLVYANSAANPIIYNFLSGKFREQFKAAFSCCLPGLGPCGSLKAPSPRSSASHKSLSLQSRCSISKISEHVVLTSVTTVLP
Method: (§1) Evaluation of Agonist Activity Against OX1R and OX2R
(§2) NAFT-luciferase gene and human OX1R gene were constitutively expressed in CHO cell, which is a cell line derived from Chinese hamster ovary to establish a cell line (CHOOX1R) and NAFT-luciferase gene and human OX2R gene were constitutively expressed in CHO cell to establish a cell line (CHOOX2R). The respective cells were seeded in a 96-well Multiplate at 10,000 cells/well and cultured in a 5% FBS (Thermo Scientific)-added DMEM medium (Sigma-Aldrich) for 48 hr. The medium was removed, an assay buffer (20 mM HEPES (Sigma-Aldrich), Hanks' balanced salt solution (Gibco), 0.1% BSA (Sigma-Aldrich), 2.5 mM probenecid acid (Wako Pure Chemical Industries, Ltd.)) (100 μL) containing 5 μM Fura-2AM (Cayman Chemical) was added, and the cells were incubated for 60 min. The buffer containing Fura-2AM was removed, and an assay buffer (75 μL) was added. An assay buffer (25 μL) containing a test compound was added thereto to start the reaction. Changes in the intracellular calcium ion concentration due to the reaction were measured by measuring the fluorescence intensity ratio by dual wavelength excitation at 340 and 380 nm, by using FDSS7000 (Hamamatsu Photonics K.K.). The test compound was dissolved in DMSO to 10 mM, and diluted with the assay buffer to a final concentration of 10^−7M to 10^−5M (final concentration of DMSO 1%).
(§3) (As used herein, Response in Table 21 to Table 27 is a value obtained by dividing the agonist activity value, when the test compound is evaluated with orexin-A as a full-agonist (maximum value of agonist activity: 100%), at 10 μM, 1.0 μM, 0.1 μM by the agonist activity value of orexin-A.)

human OX2R = target: T2, human OX2R (Homo sapiens, UniProt O43614); assay: Agonist activity against OX2R: intracellular calcium (Fura-2AM, FDSS7000) in CHOOX2R cells; format: cell-based; conditions: relative to orexin-A as full agonist (100%)
T2 construct: expressed in transfected cells; host or cells: CHO (Chinese hamster ovary) cells, line CHOOX2R, co-expressing NFAT-luciferase
T2 sequence (O43614 1-444): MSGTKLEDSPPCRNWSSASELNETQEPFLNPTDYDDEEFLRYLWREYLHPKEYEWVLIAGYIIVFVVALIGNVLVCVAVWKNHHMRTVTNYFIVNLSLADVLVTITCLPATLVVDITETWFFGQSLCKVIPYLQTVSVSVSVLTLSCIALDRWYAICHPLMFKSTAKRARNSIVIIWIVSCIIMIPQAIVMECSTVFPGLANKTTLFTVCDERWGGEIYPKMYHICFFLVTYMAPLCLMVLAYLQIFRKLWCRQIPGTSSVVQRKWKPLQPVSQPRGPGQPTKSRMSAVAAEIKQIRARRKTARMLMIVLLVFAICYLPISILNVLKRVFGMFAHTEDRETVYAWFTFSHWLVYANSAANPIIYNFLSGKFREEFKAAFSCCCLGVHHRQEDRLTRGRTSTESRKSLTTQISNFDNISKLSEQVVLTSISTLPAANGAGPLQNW
Method: as §1, §2, §3

[1] = 0.1 μM test compound, relative to orexin-A as full agonist (100%)
[2] = 1.0 μM test compound, relative to orexin-A as full agonist (100%)
[3] = 10 μM test compound, relative to orexin-A as full agonist (100%)
[4] = test compound 0.1 μM, relative to orexin-A as full agonist (100%)
[5] = test compound 1.0 μM, relative to orexin-A as full agonist (100%)
[6] = test compound 10 μM, relative to orexin-A as full agonist (100%)

Row | Response (%) OX2R (human OX2R; 0.1 μM test compound) [%] | Response (%) OX2R (human OX2R; 1.0 μM test compound) [%] | Response (%) OX2R (human OX2R; 10 μM test compound) [%] | Response (%) OX2R (human OX2R; test compound 0.1 μM) [%] | Response (%) OX2R (human OX2R; test compound 1.0 μM) [%] | Response (%) OX2R (human OX2R; test compound 10 μM) [%] | Response (%) OX1R (human OX1R; [4]) [%] | Response (%) OX1R (human OX1R; [5]) [%] | Response (%) OX1R (human OX1R; [6]) [%] | Structure (SMILES) | other results
1 | 11 | 84 | 81 | – | – | – | – | – | – | COc1ccc(Nc2cccc(NS(=O)(=O)c3cc(-c4cccc(C(=O)N(C)C)c4)ccc3OC)c2)cc1 [Example 29] | Response (%) OX1R (human OX1R; [1]): <5%; Response (%) OX1R (human OX1R; [2]): <5%; Response (%) OX1R (human OX1R; [3]): <5%
2 | – | – | – | <5 | <5 | 46 | – | – | – | C=CC(=O)NCCN(C(=O)C=C)c1cccc(NS(=O)(=O)c2cc(-c3cccc(C(=O)N(C)C)c3)ccc2OC)c1 [Example 94, 3′-(N-(3-(N-(2-acrylamidoethyl)acrylamido)phenyl)sulfamoyl)-4′-methoxy-N,N-dimethyl-[1,1′-biphenyl]-3-carboxamide] | Emax at 0.1 µM (human OX1R; [4]): < 5%; Emax at 1 µM (human OX1R; [5]): < 5%; Emax at 10 µM (human OX1R; [6]): < 5%
3 | 8 | 10 | 24 | – | – | – | – | – | – | COc1ccc(-c2cccc(C(=O)N(C)C)c2)cc1S(=O)(=O)Nc1cccc(NC(=O)c2cccc(N(C)C)c2)c1 [Example 7] | Response (%) OX1R (human OX1R; [1]): 6%; Response (%) OX1R (human OX1R; [2]): 8%; Response (%) OX1R (human OX1R; [3]): 27%
4 | – | – | – | 7 | 6 | 39 | 8 | 9 | 7 | COc1ccc(C(=O)NCc2cccnc2)cc1S(=O)(=O)Nc1cccc(NC(=O)Nc2ccc(N(C)C)cc2)c1 [Example 109] | –
5 | – | – | – | <5 | 56 | 89 | <5 | <5 | <5 | COc1ccc(-c2cccc(C(=O)N(C)C)c2)cc1S(=O)(=O)Nc1cccc(NS(=O)(=O)Nc2cccc(C)c2)c1 [Example 90] | –
6 | – | – | – | <5 | <5 | 16 | <5 | <5 | 7 | COc1cccc(Nc2c(Nc3cccc(NS(=O)(=O)c4cc(-c5cccc(C(=O)N(C)C)c5)ccc4OC)c3)c(=O)c2=O)c1 [Example 82] | –
7 | <5 | 52 | 95 | – | – | – | – | – | – | COc1ccc(-c2cccc(C(=O)N(C)C)c2)cc1S(=O)(=O)Nc1cccc(Nc2ccc(C(=O)N(C)C)cc2)c1 [Example 34] | Response (%) OX1R (human OX1R; [1]): <5%; Response (%) OX1R (human OX1R; [2]): <5%; Response (%) OX1R (human OX1R; [3]): <5%
8 | – | – | – | <5 | <5 | 11 | <5 | <5 | 9 | COc1ccccc1Nc1c(Nc2cccc(NS(=O)(=O)c3cc(-c4cccc(C(=O)N(C)C)c4)ccc3OC)c2)c(=O)c1=O [Example 83] | –
9 | 55 | 88 | 81 | – | – | – | – | – | – | COc1ccc(-c2cccc(C(=O)N(C)C)c2)cc1S(=O)(=O)Nc1cccc(NC(=O)Nc2ccccc2)c1 [Example 37, 4′-methoxy-N,N-dimethyl-3′-(N-(3-(3-phenylureido)phenyl)sulfamoyl)-[1,1′-biphenyl]-3-carboxamide] | Emax at 0.1 µM (human OX1R; [1]): < 5%; Emax at 1 µM (human OX1R; [2]): < 5%; Emax at 10 µM (human OX1R; [3]): < 5%
10 | – | – | – | <5 | <5 | 28 | <5 | <5 | <5 | COc1ccc(C(=O)N(C)C)cc1S(=O)(=O)Nc1cccc(NC(=O)Nc2ccccc2N(C)C)c1 [Example 114] | –
11 | – | – | – | <5 | <5 | 11 | <5 | <5 | <5 | COc1ccc(-c2cccc(C(=O)N(C)C)c2)cc1S(=O)(=O)Nc1cccc(NS(=O)(=O)c2cccc(Br)c2)c1 [Example 86] | –
12 | – | – | – | 29 | 84 | 103 | <5 | <5 | <5 | CCCOc1ccc(-c2cccc(C(=O)N(C)C)c2)cc1S(=O)(=O)Nc1cccc(NC(=O)Nc2cccc(N(C)C)c2)c1 [Example 120] | –
13 | 7 | 59 | 79 | – | – | – | – | – | – | COc1ccc(-c2cccc(C(=O)N(C)C)c2)cc1S(=O)(=O)Nc1cccc(NC(=O)Nc2ccc(NC(=O)OC(C)(C)C)cc2)c1 [Example 72] | Response (%) OX1R (human OX1R; [1]): <5%; Response (%) OX1R (human OX1R; [2]): <5%; Response (%) OX1R (human OX1R; [3]): <5%
14 | <5 | <5 | 31 | – | – | – | – | – | – | COc1ccc(-c2cccc(C(=O)N(C)C)c2)cc1S(=O)(=O)Nc1cccc(NC(=O)Nc2ccc(NC(=N)N)cc2)c1 [Example 60] | Response (%) OX1R (human OX1R; [1]): <5%; Response (%) OX1R (human OX1R; [2]): <5%; Response (%) OX1R (human OX1R; [3]): <5%
15 | – | – | – | 42 | 100 | 101 | <5 | <5 | 46 | COc1ccc(-c2cccc(C(=O)N(C)C)c2)cc1S(=O)(=O)Nc1cccc(N2CCCN(c3ccccc3)C2=O)c1 [Example 132] | –
16 | <5 | 51 | 99 | – | – | – | – | – | – | COc1ccc(-c2cccc(C(=O)N(C)C)c2)cc1S(=O)(=O)Nc1cccc(NC(=N)Nc2ccccc2)c1 [Example 77, 4′-methoxy-N,N-dimethyl-3′-(N-(3-(3-phenylguanidino)phenyl)sulfamoyl)-[1,1′-biphenyl]-3-carboxamide] | Emax at 0.1 µM (human OX1R; [1]): < 5%; Emax at 1 µM (human OX1R; [2]): < 5%; Emax at 10 µM (human OX1R; [3]): < 5%
17 | <5 | 6 | 67 | – | – | – | – | – | – | COc1ccc(-c2cccc(C(=O)N(C)C)c2)cc1S(=O)(=O)Nc1cccc(NC(=O)c2ccccc2)c1 [Example 1, 3′-(N-(3-benzamidophenyl)sulfamoyl)-4′-methoxy-N,N-dimethyl-[1,1′-biphenyl]-3-carboxamide] | Emax at 0.1 µM (human OX1R; [1]): < 5%; Emax at 1 µM (human OX1R; [2]): < 5%; Emax at 10 µM (human OX1R; [3]): < 5%

Row | Structure (SMILES) | Response (%) OX2R (human OX2R; 0.1 μM test compound) [%] | Response (%) OX2R (human OX2R; 1.0 μM test compound) [%] | Response (%) OX2R (human OX2R; 10 μM test compound) [%] | Response (%) OX2R (human OX2R; test compound 0.1 μM) [%] | Response (%) OX2R (human OX2R; test compound 1.0 μM) [%] | Response (%) OX2R (human OX2R; test compound 10 μM) [%] | Response (%) OX1R (human OX1R; [4]) [%] | Response (%) OX1R (human OX1R; [5]) [%] | Response (%) OX1R (human OX1R; [6]) [%] | other results
18 | COc1ccc(-c2cccc(C(=O)N(C)C)c2)cc1S(=O)(=O)Nc1cccc(N(C)C(=O)Nc2cccc(N(C)C)c2)c1 [Example 125, 3′-(N-(3-(3-(3-(dimethylamino)phenyl)-1-methylureido)phenyl)sulfamoyl)-4′-methoxy-N,N-dimethyl-[1,1′-biphenyl]-3-carboxamide] | – | – | – | 42 | 78 | 79 | – | – | – | Emax at 0.1 µM (human OX1R): < 5%; Emax at 1 µM (human OX1R): < 5%; Emax at 10 µM (human OX1R): < 5%
